Test results taken from PubChem BioAssay (NCI).
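Cells were grown in 96-well plates and exposed to each compound for 48 hours at five concentrations; endpoints were interpolated linearly between bracketing concentrations, or set to the highest concentration if not reached. Here, GI50 denotes the concentration required for 50% inhibition of growth. Definition used: TGI = concentration required for complete inhibition of growth.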

Key:
Assay in all cases: NCI tumour cell line growth inhibition, 48 h
[1] = test system: SNB-75 CNS
[2] = test system: UACC-257 melanoma
[3] = test system: HS 578T breast
[4] = test system: OVCAR-8 ovarian
[5] = test system: A549 NSCLC
[6] = test system: NCI-H23 lung
[7] = test system: SW-620 colon
[8] = test system: HOP-62 NSCLC
[9] = test system: HCT-116 colon
[10] = test system: A498 renal
[11] = test system: COLO 205 colon
[12] = test system: RPMI-8226 leukemia
[13] = test system: T-47D breast
[14] = test system: OVCAR-5 ovarian
[15] = test system: OVCAR-3 ovarian
[16] = test system: HCT-15 colon
[17] = test system: 786-0 renal
[18] = test system: SR leukemia
[19] = test system: MCF7 breast
[20] = test system: PC-3 prostate
[21] = test system: U251 CNS
[22] = test system: HOP-92 NSCLC
[23] = test system: CCRF-CEM leukemia
[24] = test system: SK-MEL-28 melanoma
[25] = test system: NCI-H460 lung
[26] = test system: K-562 leukemia
[27] = test system: TK-10 renal
[28] = test system: NCI-H522 lung
[29] = test system: MDA-MB-435
[30] = test system: KM12 colon
[31] = test system: BT-549 breast
[32] = test system: LOX IMVI melanoma
[33] = test system: MDA-MB-231 breast
[34] = test system: SK-MEL-2 melanoma
[35] = test system: UACC-62 melanoma
[36] = test system: OVCAR-4 ovarian
[37] = test system: SNB-19 CNS
[38] = test system: HCC-2998 colon
[39] = test system: M14 melanoma
[40] = test system: CAKI-1 renal
[41] = test system: MOLT-4 leukemia
[42] = test system: HL-60(TB) leukemia
[43] = test system: SF-539 CNS
[44] = test system: SK-MEL-5 melanoma
[45] = test system: EKVX NSCLC
[46] = test system: NCI-H226 lung
[47] = test system: NCI/ADR-RES ovarian
[48] = test system: SN12C renal
[49] = test system: SK-OV-3 ovarian
[50] = test system: ACHN renal
[51] = test system: HT29 colon
[52] = test system: SF-268 CNS
[53] = test system: DU-145 prostate

O=C(Nc1ccc(Nc2ccncc2)cc1)c1ccc(Nc2ccnc3ccc([N+](=O)[O-])cc23)cc1
GI50 [1]: > 100 µM | TGI [1]: > 100 µM | GI50 [2]: > 100 µM | TGI [2]: > 100 µM | GI50 [3]: > 100 µM | TGI [3]: > 100 µM | GI50 [4]: > 100 µM | TGI [4]: > 100 µM | GI50 [5]: > 100 µM | TGI [5]: > 100 µM | GI50 [6]: > 100 µM | TGI [6]: > 100 µM | GI50 [7]: > 100 µM | TGI [7]: > 100 µM | GI50 [8]: > 100 µM | TGI [8]: > 100 µM | GI50 [9]: > 100 µM | TGI [9]: > 100 µM | GI50 [10]: > 100 µM | TGI [10]: > 100 µM | GI50 [11]: > 100 µM | TGI [11]: > 100 µM | GI50 [12]: > 100 µM | TGI [12]: > 100 µM | GI50 [13]: > 100 µM | TGI [13]: > 100 µM | GI50 [14]: > 100 µM | TGI [14]: > 100 µM | GI50 [15]: 6.35 µM | TGI [15]: > 100 µM | GI50 [16]: > 100 µM | TGI [16]: > 100 µM | GI50 [17]: > 100 µM | TGI [17]: > 100 µM | GI50 [18]: 7.53 µM | TGI [18]: > 100 µM | GI50 [19]: > 100 µM | TGI [19]: > 100 µM | GI50 [20]: > 100 µM | TGI [20]: > 100 µM | GI50 [21]: 30.1 µM | TGI [21]: > 100 µM | GI50 [22]: > 100 µM | TGI [22]: > 100 µM | GI50 [23]: > 100 µM | TGI [23]: > 100 µM | GI50 [24]: 63.8 µM | TGI [24]: > 100 µM | GI50 [25]: 6.27 µM | TGI [25]: > 100 µM | GI50 [26]: > 100 µM | TGI [26]: > 100 µM | GI50 [27]: > 100 µM | TGI [27]: > 100 µM | GI50 [28]: > 100 µM | TGI [28]: > 100 µM | GI50 [29]: > 100 µM | TGI [29]: > 100 µM | GI50 [30]: > 100 µM | TGI [30]: > 100 µM | GI50 [31]: > 100 µM | TGI [31]: > 100 µM | GI50 [32]: > 100 µM | TGI [32]: > 100 µM | GI50 [33]: 78.2 µM | TGI [33]: > 100 µM | GI50 [34]: > 100 µM | TGI [34]: > 100 µM | GI50 [35]: 68.1 µM | TGI [35]: > 100 µM | GI50 [36]: > 100 µM | TGI [36]: > 100 µM | GI50 [37]: > 100 µM | TGI [37]: > 100 µM | GI50 [38]: > 100 µM | TGI [38]: > 100 µM | GI50 [39]: > 100 µM | TGI [39]: > 100 µM | GI50 [40]: > 100 µM | TGI [40]: > 100 µM | GI50 [41]: > 100 µM | TGI [41]: > 100 µM | GI50 [42]: > 100 µM | TGI [42]: > 100 µM | GI50 [43]: > 100 µM | TGI [43]: > 100 µM | GI50 [44]: 71.4 µM | TGI [44]: > 100 µM | GI50 [45]: > 100 µM | TGI [45]: > 100 µM | GI50 [46]: > 100 µM | TGI [46]: > 100 µM | GI50 [47]: > 100 µM | TGI [47]: > 100 µM | GI50 [48]: > 100 µM | TGI [48]: > 100 µM | GI50 [49]: > 100 µM | TGI [49]: > 100 µM | GI50 [50]: > 100 µM | TGI [50]: > 100 µM | GI50 [51]: > 100 µM | TGI [51]: > 100 µM | GI50 [52]: 29.9 µM | TGI [52]: > 100 µM | GI50 [53]: > 100 µM | TGI [53]: > 100 µM
